Measured values as given in US5663197A, “2-(1-hydroxyethyl)-5-hydroxynaphtho[2,3-b]furan-4,9-dione and antitumor agents comprising this compound” (priority 1992, dated 1997).

Tested on: carcinogenic promotion (skin papillomas in mice)
Assay: Inhibition of two-step skin carcinogenesis in mice skin
Format: in vivo, mouse (female ICR)
Conditions: DMBA initiator, TPA promoter, 20 weeks; FIG. 28 (NFD 85 nmol), FIG. 29 (lapacoal)
Protocol: Female ICR mice were used as test animals. Fifteen mice were housed in a cage and kept on a commercial pellet diet and drinking water ad libitum until the end of the experiment. The mice were purchased at their age of six-week-old. Dorsal hair of mice was shaved, and next day, 390 nmol of 7,12-dimethylbenz(a)anthracene (DMBA) in 0.1 ml acetone was applied, as an initiator, on the shaved back. One week later, 1.7 nmol of 12-O-tetradecanoylphorbol-13-acetate (TPA) in 0.1 ml acetone was applied, as a promoter, to the same place twice a week. This procedure was repeated for 20 weeks.
Mice were observed once a week for the number of papillomas larger than 1 mm, and the experimental results were given as the percentage of papilloma-bearing mice in each group and the number of papillomas per mouse.

## CC(C)=CCC1=C(O)C(=O)c2ccccc2C1=O [lapacoal, reference compound]
  inhibitory effect on carcinogenic promotion in skin: inhibitory effect
